Source: patent US10774121B2, “Methods and compositions for treating neurodegenerative disorders and Alzheimer's Disease and improving normal memory” (The Regents of the University of California, priority 2006, dated 2020)
“Also recorded” adds a separate entry of the source.

Columns and labels:
Aβ production = test: ELISA of Aβ produced in β-APP-only:PS-1-only co-culture extracts; format: cell-based, mouse; settings: synthetic peptides 0-3 μM added at the time of the co-culture
Protocol: Co-cultures of β-APP-only and PS-1-only cells were carried out in the presence and absence of Peptide 1-80 (0-3 μM). ^35S-GTPγS assays were carried out on extracts as a measure of G-protein activation. The Aβ produced in these co-culture extracts was determined by ELISA.
ES-derived mouse cells (PS-1^−/−; PS-2^−/−) that expressed only small amounts of endogenous β-APP but no PS, were transiently transfected with cDNA for human β-APP to produce cells expressing excess human β-APP over mouse β-APP, and no PS-1 or PS-2 (β-APP-only cells). Embryonic (E18) mouse primary fibroblasts derived from β-APP-null mice, expressing only small amounts of endogenous PS-1 and PS-2, were transfected with cDNAs for human PS-1 to produce cells expressing excess human over mouse PS-1 but no β-APP (PS-1-only cells). The minigenes were co-transfected with PS-1 in the PS-only APP−/− fibroblasts to inhibit the endogenous mouse Gα under investigation in those cells. PS−/− ES cells were separately transfected with human β-APP cDNA (β-APP only cells) and the two types of cells were co-cultured for 24 hours. Cells were harvested and detergent-buffer extracts of the co-cultures were prepared. Determination of [^35S]GTPγS incorporation in these cultures was carried out in the presence and absence of each minigene: Aliquots each containing 100 μg total protein were reacted with ^35S-GTPγS and immunoprecipitation of each ^35S-GTPγS-treated extract was carried out with antibodies directed to the particular Gα under investigation. Specificity of binding of a particular Gα to PS-1 was established by blocking of GTPγS incorporation in the presence of the specific minigene inhibitor.
Co-culture of β-APP-only with PS-1-only cells was carried out as described above.
ELISA for the production of Aβ1-40 was carried out using sandwich ELISA kits (Biosource).

Gαs = biological target: T1, Gαs (Rattus norvegicus, UniProt P63095); test: Stimulation of 35S-GTPγS binding to Gs by PS-1 cytoplasmic peptides in rat hippocampal membrane preparations; format: biochemical; settings: peptides 200 μM, rat hippocampal membranes
T1 construct: tissue Applied Cell Science, Rockville, Md; host or cells: rat hippocampal membranes, solubilized in CHAPS buffer
Protocol: (§1) The autonomous activation of G-proteins Gαo, Gαq and Gαs by oligopeptides corresponding to cytoplasmic loops 1, 2, 3 and the COOH tail of human PS-1 in the 7-TM PS model were examined. The peptides were individually tested for their ability to stimulate ^35S-GTPγS binding to each G-protein in rat hippocampal membrane preparations.
(§2) Rat hippocampal membranes (Applied Cell Science, Rockville, Md.) were solubilized in CHAPs buffer.
(§3) Peptides (200 μM) were incubated without pre-treatment with solubilized rat hippocampal membranes (50 μg) in the ^35S reaction mixture. Accumulation of γ-S GTP the ^35S-GTPγS was determined after immunoprecipitation with the specific anti-G Ab.

Gαo [1] = biological target: T2, Gαo (Rattus norvegicus, UniProt P59215); test: Stimulation of 35S-GTPγS binding to Go by PS-1 cytoplasmic peptides in rat hippocampal membrane preparations; format: biochemical; settings: peptides 200 μM; for stimulation of 35S-GTPγS binding to Go: rat hippocampal membranes
T2 construct: tissue Applied Cell Science, Rockville, Md; host or cells: rat hippocampal membranes, solubilized in CHAPS buffer
Description: To provide evidence that the GoA binding observed in FIG. 5A was directly to PS-1, and not to a co-immunoprecipitated, PS-associated protein the autonomous activation of Go by synthetic peptide fragments corresponding to cytoplasmic loops 1, 2, 3 and the carboxyl tail of PS-1 (in the 7-TM PS model) were investigated (see FIGS. 20B and C and Table 1). The peptides were individually tested for their ability to stimulate ^35S-GTPγS binding to Go in rat hippocampal membrane preparations.
as §1, §2, §3

Gαq = biological target: T3, Gαq (Rattus norvegicus, UniProt P82471); test: Stimulation of 35S-GTPγS binding to Gq by PS-1 cytoplasmic peptides in rat hippocampal membrane preparations; format: biochemical; settings: peptides 200 μM, rat hippocampal membranes
T3 sequence (P82471 1-359): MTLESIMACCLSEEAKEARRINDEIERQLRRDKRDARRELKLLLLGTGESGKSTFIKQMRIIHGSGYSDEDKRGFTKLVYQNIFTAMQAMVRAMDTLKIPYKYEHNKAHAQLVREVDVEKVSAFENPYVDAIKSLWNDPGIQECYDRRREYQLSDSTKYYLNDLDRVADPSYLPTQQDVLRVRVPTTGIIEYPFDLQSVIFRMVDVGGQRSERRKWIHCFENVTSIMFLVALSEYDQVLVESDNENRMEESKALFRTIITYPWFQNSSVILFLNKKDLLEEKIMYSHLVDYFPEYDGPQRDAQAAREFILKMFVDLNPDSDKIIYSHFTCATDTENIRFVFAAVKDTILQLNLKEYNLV
Protocol: as §1, §2, §3

[2] = test system: protein tyrosine kinase activity; test: Protein tyrosine kinase ELISA on extracts of β-APP-transfected ES double-null cells mixed with PS-1-transfected DAMI cells; format: cell-based; settings: 25 μg protein added, 0-20 min after mixing
Protocol: DAMI:ES cells: Equal numbers (0.5×10^6/ml) of β-APP 695 (Selkoe and Podlisny, 2002)-transfected ES double-null cells and PS-1 transfected DAMI cells were co-cultured at 37° C. for various times between 0-20 mins.
At several times between 0 and 20 min after mixing, an aliquot of each cell mixture was rapidly centrifuged, the culture medium was removed, and the cell pellet was suspended in 200 μl of extraction buffer (50 mM Tris, pH 8.0/150 mM NaCl/0.5% Nonidet-P40) containing protease inhibitors (1 mM 4-(2-aminoethyl) benzene sulfonyl fluoride hydrochloride (AEBSF)/1 μg/ml antipain/0.1 μg/ml pepstatin A/0.1 μg/ml leupeptin) and the phosphatase inhibitor sodium orthovanadate (0.1 mM). The mixture was sonicated with three bursts of 20 sec duration and then centrifuged. These extract supernatants were then used for Western blot and ELISA analyses as described below.
ELISAs Protein tyrosine kinase activity was measured by an Enzyme Linked Immunosorbent Assay (ELISA) using a tyrosine kinase assay kit (Upstate Biotechnology). A biotinylated substrate peptide containing tandem repeats of Poly (Glu4-Tyr) was incubated with supernatants of extracts of transfected cells mixed for different times ([…]) in the presence of non-radioactive ATP and a Mn^2+/Mg^2+ co-factor cocktail according to the manufacturer's protocols. A phosphotyrosine specific mouse monoclonal antibody (4G10) conjugated to horseradish peroxidase was used to detect the phosphorylated substrate by ELISA.
ES double-null cells transfected with β-APP were mixed with DAMI cells transfected with PS-1, and were co-cultured for various times between 0-20 min, using cell densities that ensured cell-cell contact. ELISA assays were then carried out on cell extracts to measure protein tyrosine kinase activity. […]

Gαo [3] = test: 35S-GTPγS incorporation after addition of β-APPs to cell cultures, immunoprecipitation with Gαo antibodies; format: cell-based, mouse
Protocol: In addition, water-soluble β-APP ectodomain itself (B-APPs), when added to cultures of PS-1-only cells, could also activate G-proteins in a dose-dependent manner. β-APPs was partially purified from conditioned media of baculovirus cultures over-expressing human β-APP. The final product (FIG. 18b, lane 1) had, in addition to β-APP, three major contaminating bands at 81 kDa, 55 kDa and 31 kDa that co-purified with the β-APP ectodomain. This partially purified β-APPs preparation was added in increasing amounts to PS-1-only APP^−/− fibroblasts. After 15 mins the cells from each well were harvested in extraction buffer, and detergent extracts (each containing 100 μg protein) were treated with ^35S-GTPγS. Activation of Gαo was assayed after immunoprecipitation of the activated ^35S-GTPγS-Gαo with the Gαo-specific antibodies. […] Furthermore, when partially purified β-APPs was added to untransfected ES (PS^−/−) cells, no increase in G-protein activation was observed by ^35S-GTPγS assays (FIG. 18A, curve 5), further implicating PS as a receptor for the β-APP ligand in the Gαo activation.
To confirm that it was indeed the β-APPs in the partially purified β-APPs preparation that was the ligand responsible for G-protein activation, and not one of the contaminants, β-APPs was removed from the preparation by treatment with MAb 348 to β-APP (see FIG. 18C, lane 2). This β-APPs-depleted solution at the same concentrations used for the non-depleted preparation, was added to the PS-1-only cells, which were then treated exactly as described above. […] In contrast, the β-APPs preparation similarly treated with an irrelevant IgG when added to PS-1-only cells, gave results that resembled those obtained with the untreated samples (FIG. 18A, curve 2).
(§4) ^35S-GTPγS Assays: Extract (100 μg of total protein) was mixed with an equal volume of GTPγS Buffer B (50 mM HEPES/NaOH pH 7.4, 40 μM GDP, 50 mM MgCl2, 100 mM NaCl) and reacted with 50 nM ^35S-GTPγS (1250 Ci/mmol, Perkin Elmer, Waltham, Mass.) for 60 min at RT. The reaction was stopped with 10× Stopping buffer (100 mM Tris-HCl, pH 8, 25 mM MgCl2, 100 mM NaCl, 20 mM GTP) followed by immunoprecipitation of the ^35S-GTPγS-Gαo complex with Ab against a particular Gα. The Ab-protein complex was absorbed to Protein A/G agarose for 90 min at RT and washed. The agarose beads were suspended in scintillation fluid (CytoScint, ICN) (5 ml) and counted in a Beckman Coulter LS 6000 SC scintillation counter for 3 min.

G-protein Go = test: 35S-GTPγS incorporation after addition of β-APPs to solubilized rat hippocampal membranes; format: biochemical
Protocol: Because the results so far described were obtained using only cultured cells transfected with human PS, binding of the endogenous rat PS proteins with rat Gαo present in rat hippocampal membranes was examined. […]
as §4, §2

T1 sequence (P63095 whole entry): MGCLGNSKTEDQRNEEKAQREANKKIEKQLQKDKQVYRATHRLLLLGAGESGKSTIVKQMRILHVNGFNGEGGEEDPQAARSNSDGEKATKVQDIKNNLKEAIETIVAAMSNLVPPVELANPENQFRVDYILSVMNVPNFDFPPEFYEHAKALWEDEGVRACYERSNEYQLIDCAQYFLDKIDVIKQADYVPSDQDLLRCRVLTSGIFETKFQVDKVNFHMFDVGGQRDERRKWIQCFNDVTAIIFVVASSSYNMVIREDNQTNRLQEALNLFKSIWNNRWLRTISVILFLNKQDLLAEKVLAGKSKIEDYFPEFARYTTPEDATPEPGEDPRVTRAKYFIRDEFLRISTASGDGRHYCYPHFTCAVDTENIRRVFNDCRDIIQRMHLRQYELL
T2 sequence (P59215 whole entry): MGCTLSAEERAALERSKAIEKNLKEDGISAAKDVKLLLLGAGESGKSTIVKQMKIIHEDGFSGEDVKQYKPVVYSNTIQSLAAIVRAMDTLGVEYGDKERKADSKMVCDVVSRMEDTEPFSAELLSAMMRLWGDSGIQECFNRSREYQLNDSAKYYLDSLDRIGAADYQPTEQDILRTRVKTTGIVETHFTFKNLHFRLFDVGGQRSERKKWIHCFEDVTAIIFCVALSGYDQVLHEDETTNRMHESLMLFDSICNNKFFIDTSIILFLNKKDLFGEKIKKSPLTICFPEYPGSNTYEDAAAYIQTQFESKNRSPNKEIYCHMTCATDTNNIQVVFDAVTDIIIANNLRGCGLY

In the case of “DEEEDEEL [Peptide 8, 8-mer of the PS-1 N-terminal domain]”, the “cell-cell interaction and Aβ production, ELISA” value (Aβ production) is reported as “inhibits”.
For “DEEEDEELTLKYGAK [Peptide 7, 15-mer of the PS-1 N-terminal domain]”, the “cell-cell interaction and Aβ production, ELISA” value (Aβ production) was “inhibits”.
“KSVSFYTRKDGQLIYT [ic1(1-16), PS-1 cytoplasmic loop 1 peptide]” was tested, and the “stimulation of 35S-GTPγS binding to Gs” value (Gαs) was “not”.
In the case of “KYLPE [ic3, PS-1 cytoplasmic loop 3 peptide]”, the “stimulation of 35S-GTPγS binding to Go” value (Gαo [1]) is reported as “robust stimulation”, the “increase in activation of 35S-GTPγS binding over samples without peptide” value (Gαo [1]; rat membranes) is reported as 200% and the “stimulation of 35S-GTPγS binding to Gs” value (Gαs) is reported as “only background stimulation”. For the same substance, the “stimulation of 35S-GTPγS binding to Gq” value (Gαq) was “robust stimulation”.
In the case of “N-terminal domain of PS-1 fused to FLAG: fusion protein with FLAG attached at the N-terminus of the PS-1 N-terminal domain, grown in DH5α bacteria”, the “transient increase in protein tyrosine kinase activity after cell mixing” value (“transient increase” below) [2] is reported as “specifically inhibited; also recorded: none of the increases” and the “transient increase” value ([2]; listed as FLAG reporter fused to the N-terminal domain of PS-1) is reported as “no increase”.
For “PFTEDTETVGQRALHS [ic1(17-32), PS-1 cytoplasmic loop 1 peptide]”, the “stimulation of 35S-GTPγS binding to Gs” value (Gαs) was “induced stimulation”.
With “RRSLGHPEPLSNGRP [Peptide 4, 15-mer of the PS-1 N-terminal domain]” the “cell-cell interaction and Aβ production, ELISA” value (Aβ production) was “inhibits”.
For “TDYLVQPFMDQLAFHQFYI [C(21-39), remaining 19 amino acids of the PS-1 cytoplasmic C-terminal tail]”, the “stimulation of 35S-GTPγS binding to Go” value (Gαo [1]; listed as COOH-terminal peptide corresponding to residues 21-39) was “failed to activate; also recorded: no detectable Go activation”, the “stimulation of 35S-GTPγS binding to Gs” value (Gαs) was “induced stimulation” and the “stimulation of 35S-GTPγS binding to Gq” value (Gαq) was “robust stimulation”.
For “VFKTYNVAVD [ic2, PS-1 cytoplasmic loop 2 peptide]”, the “stimulation of 35S-GTPγS binding to Go” value (Gαo [1]) was “only background stimulation”, the “stimulation of 35S-GTPγS binding to Gs” value (Gαs) was “only background stimulation” and the “stimulation of 35S-GTPγS binding to Gq” value (Gαq) was “only background stimulation”.
With “β-APPs: water-soluble β-APP ectodomain, baculovirus-derived, purified or partially purified” the 35S-GTPγS incorporation (Gαo [3]; PS-1-only APP-/- fibroblast cultures, increasing β-APPs, 15 mins) was “increased ^35S-GTPgS incorporation in a dose-dependent manner”, the “maximum increase in incorporation of 35S-GTPγS” value (Gαo [3]; PS-1-only APP-/- fibroblasts, 120 pM β-APPs) was “over 500%” and the 35S-GTPγS incorporation (Gαo [3]; untransfected APP-/- fibroblasts expressing only endogenous PS) was “modest G-protein activation; also recorded: only modest increases”. The 35S-GTPγS incorporation (Gαo [3]; untransfected ES (PS-/-) cells) was “no increase; also recorded: no significant increases”, the 35S-GTPγS incorporation (G-protein Go; PS-depleted rat membranes (pre-treated with polyclonal Ab to PS-1 and PS-2)) was “did not occur; also recorded: no increase” and the “incorporation of 35S-GTPγS greater than untreated samples” value (G-protein Go; rat hippocampal membranes, 80 pM β-APPs) was 100%. The “increase in G-protein Go activation” value (G-protein Go; rat hippocampal membranes, 400 pM β-APPs) was “greater than 600%”, the 35S-GTPγS incorporation (G-protein Go; solubilized rat hippocampal membranes (100 μg), 0-400 pM β-APPs, 15 min) was “increased ^35S-GTPgS incorporation in a dose-dependent manner” and the “transient increase” value [2] was “specifically inhibited; also recorded: no increase; also recorded: none of the increases”.
